Data set [1] deals with cells. Nature of the data set: Cytotoxicity test: MTT assay of cell survival rate. The format is cell-based. As to conditions: 0, 20, 100 and 200 μg/ml; treated 2 hours; FIG. 2. Here is the method: The cytotoxicity test was performed with Methylthiazol tetrazolium bromide (MTT) assay to test the cell survival rate. The principle was that MTT is a water-soluble yellow dye, after reacting with cells it was reduced by the NADPH in the cells to become an insoluble dark blue crystal, then the blue crystal was dissolved with dimethyl sulfoxide (DMSO), the absorbance value was analyzed, the stronger the cell activity, the darker the blue, and when the cell was dead, it became yellow.
In the present invention, from low to high concentration (0, 20, 100 and 200 μg/ml) of P-113 peptide and the MI preservative were used to treat the cells for 2 hours, then the MTT solution was added for reaction, a spectrophotometer at the wavelength of 595 nm was used to analyze the cell survival rate, and the harmful toxic effect of the cosmetic raw material on the cells was determined.
(In general: Tetrazolium assays rely on reduction of a dye to a coloured formazan, in cell work by metabolically active cells.)

Data set [2] is described as follows: Moisture absorption rate in Conway's dish at defined relative humidity. As to conditions: relative humidity 32%; 30° C., 24 hours; relative to hyaluronic acid at RH 32% set as 100%; FIG. 3. The format is physicochemical. Here is the method: The moisture absorption of the P-113 peptide was determined by dissolving magnesium chloride (MgCl2) and potassium chloride (KCl), two types of salts, in water, preparing supersaturated solutions based on the respective solubility of these two types of salts, placing the solutions in sealed bottles to create a relative humidity of 32% and 84%, respectively, then taking P-113 peptide and hyaluronic acid for comparison test. The hyaluronic molecule of hyaluronic acid could carry up to 500 folds of water. The hyaluronic acid is currently recognized as the best moisturizing ingredient, and widely used in cosmetics and skincare products.
0.1 g of P-113 peptide and hyaluronic acid powder were weighed and placed in the internal chamber of a Conway's dish, saturated solutions were added in the external chamber, oil was applied on the rim of the Conway's dish lid to seal it completely, placed in an oven at 30° C. for 24 hours, then samples were removed and weighed.
Moisture absorption rate under different humidity was calculated by the following formula: Moisture absorption rate (%)=[(Wt−W0)/W0]×100%
(§1) wherein W0: the weight (g) of the initial sample, and Wt: the weight (g) of the sample removed after 24 hours.

Data set [3] is described as follows: Moisture retention rate in Conway's dish at defined relative humidity. As to conditions: relative humidity 32%; 30° C., 24 hours; reference set as 100%; FIG. 4. The format is physicochemical. Here is the method:
In addition, the moisture retention and water absorption of P-113 peptide were determined by dissolving magnesium chloride (MgCl2) and potassium chloride (KCl), two types of salts, in water, preparing supersaturated solutions based on the solubility of these two types of salt respectively, separately placing in sealed bottles to create a relative humidity of 32% and 84% respectively, then using P-113 peptide and hyaluronic acid for comparison test.
0.1 g of P-113 peptide and hyaluronic acid powder were weighed and placed in the internal chamber of a Conway's dish, then 0.1 ml of deionized water was added, saturated solutions were then added in the external chamber, sealed with the Conway's dish lid and placed in the oven at 30° C. for 24 hours, then samples were removed and weighed.
Moisture retention at different humidity levels was calculated according to the following formula: Moisture retention rate (%)=[1−((Wt−W0)/W0)]×100%
as §1

In the case of `Cn1sccc1=O` [MI, Methylisothiazolinone], the “cell survival rate (MTT)” value in data set [1] is recorded as “decreased the cell survival rate”.

Compound hyaluronic acid showed a moisture absorption rate in data set [2] of 100%. The compound further had a moisture retention rate in data set [3] of 100%.

The values above are taken from patent publication US10596095B2, “Method for moisturizing skin using P-113 peptide” (PACGEN LIFE SCIENCE CORPORATION, priority 2015, dated 2020).
